This test deals with Gli1 transcript in Daoy cells stimulated with Shh conditioned media. Description: Functional assay for measuring the inhibition of Gli1 in Daoy cells (bDNA assay of Gli1 transcript after Shh-conditioned media stimulation). It is filed as cell-based. Particulars: Homo sapiens; Daoy cells treated with Shh-CM, 24 hours incubation with compound, Gli1 transcript by bDNA luminescence. As for the experimental part:
Biological activity is determined using a functional assay in Daoy neuronal cancer cells and measures levels of Gli1 ribonucleic, acid via a bDNA. (branched deoxyribonucleic acid) assay system (Panomies, Inc., Fremont, Calif.), Gli was originally discovered in a Glioblastoma cell line and encodes a zinc finger protein that is activated by Shh signaling. The maximum response is obtained by inducing Gli1 transcription in the Daoy cells with conditioned medium (HEK-293 cells stably expressing recombinant Shb) for 24 hours and. then measuring the amount of stimulated Gli1 transcript. […]
The bDNA assay system utilizes the technology of branched-chain DNA to allow amplification of a target ribonucleic acid (transcript). […] The addition of a chemilumigenic substrate during the amplification step allows for detection using luminescence, […]
Daoy cells are grown to conflunency in tissue culture T225-flasks in Daoy growth media containing Minimum Essential Medium (MEM) plus 10% Fetal Bovine Serum (FBS) with […] non-essential amino acids and 1 mM sodium pyruvate. The cells are removed from the T225-flasks using trypsin ethylenediaminetetraacetic acid (EDTA), centrifuged, resuspended in media, and then counted. […]

Structures can show the parent of a compound that is named as a salt.

As to `CN(C(=O)c1c(F)cccc1C(F)(F)F)C1CCN(c2nnc(-c3ccccc3)c3ccccc23)CC1` [Example 36, 2-Fluoro-N-methyl-N-(1-(4-phenylphthalazin-1-yl)piperidin-4-yl)-6-(trifluoromethyl)benzamide hydrochloride], the IC50 was ~2.37 nM.

The term IC50 denotes the point on the concentration scale where inhibition reaches its midpoint.

Source of the values: patent publication US7981892B2, “Disubstituted phthalazine hedgehog pathway antagonists” (Eli Lilly and Company, priority 2008, dated 2011).
